From patent US11845760B2, “PRMT5 inhibitors” (AMGEN INC., priority 2020, dated 2023)
Where two headings read alike, the source gives them in different places.

How the values were obtained:
HCT116 MTAP null cells = assay: HCT116 MTAP null cell line proliferation (CellTiter-Glo cell viability, 6 days); assay type: cell-based; conditions: HCT116 MTAP null cells, 6 days of treatment, CellTiter-Glo cell viability, read-out: HCT-116 MTAP null IC50
Outline: (§1)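 Viability by CellTiter-Glo after 6 days' drug exposure in wild-type HCT116 and its MTAP-null knockout, with DMSO-only control. Dosing used either 1:3 steps (top 1 or 10 μM) or 22 points in 1:2 steps (top 10 or 50 μM). IC50 taken where the fitted curve crosses 50% of control.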

HCT116 WT cells = assay: HCT116 WT cell line proliferation (CellTiter-Glo cell viability, 6 days); assay type: cell-based; conditions: HCT116 WT (parent) cells, 6 days of treatment, CellTiter-Glo cell viability, read-out: HCT-116 WT IC50
Outline: as §1

IC50 (HCT116 MTAP null cells; HCT116-MTAP null, 144 h)	IC50 (HCT116 WT cells; Homo sapiens, HCT-116, 144 h)	IC50 (HCT116 MTAP null cells)	IC50 (HCT116 WT cells)	Structure (SMILES)
122 nM	6550 nM			C[C@H]1OCc2c1c(N)nc1ccc(C(=O)N3C[C@H](c4ccc(F)cc4)C(C)(C)C3)cc21 (single isomer, unassigned) [Example 463]
195 nM	5470 nM			Cc1ccc([C@@H]2CN(C(=O)c3cc4c5c(c(N)nc4cc3F)COC5)CC2(C)C)cc1 (single isomer, unassigned) [Example 464]
71 nM	3510 nM			CC1(C)CN(C(=O)c2cc3c4c(c(N)nc3cc2F)COC4)C[C@H]1c1ccc(F)cc1 (single isomer, unassigned) [Example 465]
189 nM	16600 nM			C[C@H]1OCc2c1c(N)nc1ccc(C(=O)N3C[C@@H](O)[C@H](c4ccc(Cl)cc4)C3)cc21 (single isomer, unassigned) [Example 466]
982 nM	31200 nM			C[C@H]1OCc2c1c(N)nc1ccc(C(=O)N3C[C@H](c4ccc(Cl)cc4)[C@@H](O)C3)cc21 (single isomer, unassigned) [Example 467]
417 nM	37400 nM			Nc1nc2cc(F)c(C(=O)N3CC[C@H](c4ccc(C(F)(F)F)cc4)C3)cc2c2c1COC2 (single isomer, unassigned) [Example 468]
243 nM	4950 nM			Cn1ncc2c(N)nc3cc(F)c(C(=O)N4CC[C@@H](Cc5ccc(C(F)(F)F)cc5)C4)cc3c21 (single isomer, unassigned) [Example 469]
340 nM	5300 nM			Cn1ncc2c(N)nc3cc(F)c(C(=O)N4CC[C@H](Cc5ccc(C(F)(F)F)cc5)C4)cc3c21 (single isomer, unassigned) [Example 470]
283 nM	6010 nM			Cn1ncc2c(N)nc3cc(F)c(C(=O)N4CC[C@@H](Oc5ccc(C(F)(F)F)cc5)C4)cc3c21 (single isomer, unassigned) [Example 471]
190 nM	4470 nM			Cn1ncc2c(N)nc3cc(F)c(C(=O)N4CC[C@H](Oc5ccc(C(F)(F)F)cc5)C4)cc3c21 (single isomer, unassigned) [Example 472]
17 nM	556 nM			CC1(C)CN(C(=O)c2cc3c4c(c(N)nc3cc2F)COC4)C[C@@H]1c1ccc(C(F)(F)F)cc1 (single isomer, unassigned) [Example 473]
	6420 nM	842 nM		Cn1ncc2c(N)nc3cc(F)c(C(=O)N4CC[C@@H](Oc5ccc(C(F)(F)F)cn5)C4)cc3c21 (single isomer, unassigned) [Example 474]
		175 nM	9490 nM	Cn1ncc2c(N)nc3cc(F)c(C(=O)N4CC[C@@H](Oc5ccc(C(F)(F)F)cn5)C4)cc3c21 (single isomer, unassigned) [Example 475]
68 nM	1560 nM			Nc1nc2cc(Cl)c(C(=O)N3C[C@@H](c4ccc(F)cc4)[C@H](c4cc[nH]n4)C3)cc2c2c1COC2 (single isomer, unassigned) [Example 476]
547 nM	> 50000 nM			Nc1nc2cc(Cl)c(C(=O)N3CC[C@@](O)(c4ccc(C(F)(F)F)cc4)C3)cc2c2c1COC2 (single isomer, unassigned) [Example 477]
31 nM	1950 nM			CC1(C)CN(C(=O)c2cc3c4c(c(N)nc3cc2F)COC4)C[C@H]1c1ccc(Br)cc1 (single isomer, unassigned) [Example 478]
577 nM	18900 nM			COC(=O)[C@H]1CN(C(=O)c2cc3c4c(c(N)nc3cc2F)COC4)C[C@@H]1c1ccc(C(F)(F)F)cc1 (single isomer, unassigned) [Example 479]
92 nM	1750 nM			COC(=O)[C@@H]1CN(C(=O)c2cc3c4c(c(N)nc3cc2F)COC4)C[C@H]1c1ccc(C(F)(F)F)cc1 (single isomer, unassigned) [Example 480]
107 nM	4330 nM			Nc1nc2cnc(C(=O)N3CCOC[C@@H]3c3ccc(C(F)(F)F)cc3)cc2c2c1COC2 (single isomer, unassigned) [Example 481]
